Reference: PubChem BioAssay AID1259407 (Chemical Carcinogenesis Research Information System (CCRIS), 2018)
“Also recorded” adds a separate entry of the source. Active and inactive are the calls of the source. How the calls were made is not given here.

Test system: CCRIS mutagenicity, Ames/micronucleus/aberration tests
Experiment: CCRIS mutagenicity studies
[1] = Test System: AMES SALMONELLA TYPHIMURIUM, Strain/Indicator: TA98, Metabolic Activation: NONE, Method: PREINCUBATION
[2] = Test System: AMES SALMONELLA TYPHIMURIUM, Strain/Indicator: TA100, Metabolic Activation: NONE, Method: PREINCUBATION
[3] = Test System: AMES SALMONELLA TYPHIMURIUM, Strain/Indicator: TA98, Metabolic Activation: NONE, Method: STANDARD PLATE
[4] = Test System: AMES SALMONELLA TYPHIMURIUM, Strain/Indicator: TA100, Metabolic Activation: NONE, Method: STANDARD PLATE

In the case of `Oc1ccc(Cl)c(Cl)c1Cl`, the mutagenic call (End Point: IN VITRO CHROMOSOMAL ABERRATIONS, Test System: CHINESE HAMSTER LUNG CELLS (CHL), Metabolic Activation: NONE) is reported as “inactive; negative”, the mutagenic call (End Point: IN VITRO CHROMOSOMAL ABERRATIONS, Test System: CHINESE HAMSTER LUNG CELLS (CHL), Metabolic Activation: RAT, LIVER, S-9, KC-400) is reported as “inactive; negative” and the mutagenic call (End Point: IN VITRO CHROMOSOMAL ABERRATIONS, Test System: CHINESE HAMSTER OVARY CELLS (CHO), Metabolic Activation: NONE) is reported as “inactive; negative”. The mutagenic call (End Point: IN VITRO CHROMOSOMAL ABERRATIONS, Test System: CHINESE HAMSTER OVARY CELLS (CHO), Metabolic Activation: RAT, LIVER, S-9, AROCLOR 1254) was “active; positive (structural changes); positive only at highest dose where a total of 25”, the mutagenic call (End Point: IN VITRO CHROMOSOMAL ABERRATIONS, Test System: CHL CELLS, Metabolic Activation: S-9) was “inactive; positive (structural changes); multilaboratory comparison among 5 labs; 4 report; also recorded: inactive; positive (structural changes); multilaboratory comparison among 6 labs; 5 report” and the mutagenic call (End Point: IN VITRO CHROMOSOMAL ABERRATIONS, Test System: CHO CELLS, Metabolic Activation: NONE) was “inactive; positive (structural changes); multilaboratory comparison among 5 labs; 4 report; also recorded: inactive; negative; multilaboratory comparison among 5 labs; 1 reported weakly positive; 4; also recorded: inactive; negative; multilaboratory comparison among 4 labs; negative except for 1 weak po”. The mutagenic call (End Point: IN VITRO CHROMOSOMAL ABERRATIONS, Test System: CHO CELLS, Metabolic Activation: S-9) was “active; positive (structural changes); multilaboratory comparison among 6 labs; all repo; also recorded: inactive; positive (structural changes); multilaboratory comparison among 5 labs; 2 report”, the mutagenic call (Test System: AMES SALMONELLA TYPHIMURIUM, Strain/Indicator: TA97, Metabolic Activation: HAMSTER, LIVER, S-9, AROCLOR 1254 (10 OR 30%), Method: PREINCUBATION) was “inactive; negative” and the mutagenic call (Test System: AMES SALMONELLA TYPHIMURIUM, Strain/Indicator: TA97, Metabolic Activation: NONE, Method: PREINCUBATION) was “inactive; negative”. The mutagenic call (Test System: AMES SALMONELLA TYPHIMURIUM, Strain/Indicator: TA97, Metabolic Activation: RAT, LIVER, S-9, AROCLOR 1254 (10 OR 30%), Method: PREINCUBATION) was “inactive; negative”, the mutagenic call (Test System: AMES SALMONELLA TYPHIMURIUM, Strain/Indicator: TA98, Metabolic Activation: HAMSTER, LIVER, S-9, AROCLOR 1254 (10 OR 30%), Method: PREINCUBATION) was “inactive; negative” and the mutagenic call [1] was “inactive; negative”. The mutagenic call (Test System: AMES SALMONELLA TYPHIMURIUM, Strain/Indicator: TA98, Metabolic Activation: RAT, LIVER, S-9, AROCLOR 1254 (10 OR 30%), Method: PREINCUBATION) was “inactive; negative”, the mutagenic call (Test System: AMES SALMONELLA TYPHIMURIUM, Strain/Indicator: TA100, Metabolic Activation: HAMSTER, LIVER, S-9, AROCLOR 1254 (10 OR 30%), Method: PREINCUBATION) was “inactive; negative” and the mutagenic call [2] was “inactive; negative”. For the same compound, the mutagenic call (Test System: AMES SALMONELLA TYPHIMURIUM, Strain/Indicator: TA100, Metabolic Activation: RAT, LIVER, S-9, AROCLOR 1254 (10 OR 30%), Method: PREINCUBATION) was “inactive; negative”, the mutagenic call (Test System: AMES SALMONELLA TYPHIMURIUM, Strain/Indicator: TA1535, Metabolic Activation: HAMSTER, LIVER, S-9, AROCLOR 1254 (10 OR 30%), Method: PREINCUBATION) was “inactive; negative” and the mutagenic call (Test System: AMES SALMONELLA TYPHIMURIUM, Strain/Indicator: TA1535, Metabolic Activation: NONE, Method: PREINCUBATION) was “inactive; negative”. For the same compound, the mutagenic call (Test System: AMES SALMONELLA TYPHIMURIUM, Strain/Indicator: TA1535, Metabolic Activation: RAT, LIVER, S-9, AROCLOR 1254 (10 OR 30%), Method: PREINCUBATION) was “inactive; negative”, the mutagenic call (Test System: AMES SALMONELLA TYPHIMURIUM, Strain/Indicator: TA1537, Metabolic Activation: HAMSTER, LIVER, S-9, AROCLOR 1254 (30%), Method: PREINCUBATION) was “inactive; negative” and the mutagenic call (Test System: AMES SALMONELLA TYPHIMURIUM, Strain/Indicator: TA1537, Metabolic Activation: NONE, Method: PREINCUBATION) was “inactive; negative”. The mutagenic call (Test System: AMES SALMONELLA TYPHIMURIUM, Strain/Indicator: TA1537, Metabolic Activation: RAT, LIVER, S-9, AROCLOR 1254 (30%), Method: PREINCUBATION) was “inactive; negative”.

`CC(=O)OCc1c(O)c(C(=O)O)c(C)c2c1OC(=O)c1c(C)cc(O)c(C=O)c1O2` was tested, and the mutagenic call [1] was “inactive; negative”, the mutagenic call [3] was “inactive; negative” and the mutagenic call (Test System: AMES SALMONELLA TYPHIMURIUM, Strain/Indicator: TA98, Metabolic Activation: RAT, LIVER, S-9, Method: PREINCUBATION) was “inactive; negative”. For the same compound, the mutagenic call (Test System: AMES SALMONELLA TYPHIMURIUM, Strain/Indicator: TA98, Metabolic Activation: RAT, LIVER, S-9, Method: STANDARD PLATE) was “inactive; negative”, the mutagenic call [2] was “active; positive” and the mutagenic call [4] was “inactive; negative”. The mutagenic call (Test System: AMES SALMONELLA TYPHIMURIUM, Strain/Indicator: TA100, Metabolic Activation: RAT, LIVER, S-9, Method: PREINCUBATION) was “active; positive” and the mutagenic call (Test System: AMES SALMONELLA TYPHIMURIUM, Strain/Indicator: TA100, Metabolic Activation: RAT, LIVER, S-9, Method: STANDARD PLATE) was “active; positive”.

`CC(C(=O)O)c1ccc2c(c1)[nH]c1ccc(Cl)cc12` (stereo unspecified) was tested, and the mutagenic call (Test System: AMES SALMONELLA TYPHIMURIUM, Strain/Indicator: TA98, Metabolic Activation: RAT, LIVER, S-9, PCB, Method: STANDARD PLATE) was “inactive; negative”, the mutagenic call (Test System: AMES SALMONELLA TYPHIMURIUM, Strain/Indicator: TA100, Metabolic Activation: RAT, LIVER, S-9, PCB, Method: STANDARD PLATE) was “inactive; negative” and the mutagenic call (Test System: AMES SALMONELLA TYPHIMURIUM, Strain/Indicator: TA1537, Metabolic Activation: RAT, LIVER, S-9, PCB, Method: STANDARD PLATE) was “inactive; negative”. For the same compound, the mutagenic call (Test System: AMES SALMONELLA TYPHIMURIUM, Strain/Indicator: TA1538, Metabolic Activation: RAT, LIVER, S-9, PCB, Method: STANDARD PLATE) was “inactive; negative” and the mutagenic call (Test System: E. COLI, Strain/Indicator: WP2 UVRA, Metabolic Activation: RAT, LIVER, S-9, PCB, Method: STANDARD PLATE) was “inactive; negative”.

`CCN(CC)c1ccc(N=Nc2c(Cl)cc([N+](=O)[O-])cc2Cl)cc1` was tested, and the mutagenic call [3] was “active; positive”, the mutagenic call (Test System: AMES SALMONELLA TYPHIMURIUM, Strain/Indicator: TA98, Metabolic Activation: RAT, LIVER, S-9, AROCLOR 1254, Method: STANDARD PLATE) was “active; positive” and the mutagenic call [4] was “inactive; negative”. For the same compound, the mutagenic call (Test System: AMES SALMONELLA TYPHIMURIUM, Strain/Indicator: TA100, Metabolic Activation: RAT, LIVER, S-9, AROCLOR 1254, Method: STANDARD PLATE) was “inactive; negative”, the mutagenic call (Test System: AMES SALMONELLA TYPHIMURIUM, Strain/Indicator: TA1535, Metabolic Activation: NONE, Method: STANDARD PLATE) was “inactive; negative” and the mutagenic call (Test System: AMES SALMONELLA TYPHIMURIUM, Strain/Indicator: TA1535, Metabolic Activation: RAT, LIVER, S-9, AROCLOR 1254, Method: STANDARD PLATE) was “inactive; negative”. For the same compound, the mutagenic call (Test System: AMES SALMONELLA TYPHIMURIUM, Strain/Indicator: TA1537, Metabolic Activation: NONE, Method: STANDARD PLATE) was “inactive; negative”, the mutagenic call (Test System: AMES SALMONELLA TYPHIMURIUM, Strain/Indicator: TA1537, Metabolic Activation: RAT, LIVER, S-9, AROCLOR 1254, Method: STANDARD PLATE) was “inactive; negative” and the mutagenic call (Test System: CHINESE HAMSTER OVARY, Strain/Indicator: CHO (HGPRT)/6-THIOGUANINE, Metabolic Activation: NONE) was “inactive; negative”. For the same compound, the mutagenic call (Test System: CHINESE HAMSTER OVARY, Strain/Indicator: CHO (HGPRT)/6-THIOGUANINE, Metabolic Activation: RAT, LIVER, S-9, AROCLOR 1254) was “inactive; negative” and the mutagenic call (Test System: UDS RAT HEPATOCYTES, Strain/Indicator: THY INCORP, Metabolic Activation: NONE, Method: AUTORADIOGRAPHY) was “inactive; negative”.
